In ChEMBL document CHEMBL4152189, “Incorporation of nitric oxide donor into 1,3-dioxyxanthones leads to synergistic anticancer activity” (Eur J Med Chem, 2018):
Calls of active or inactive are those of the source. No cut-off for these calls is given here.

Experiments:
HepG2 [1] = assay: Induction of apoptosis in human HepG2 cells assessed as increase in cleaved caspase3 level up to 0.66 uM after 24 hrs by Western blot analysis; type: functional, cell-based
HepG2 [2] = assay: Induction of apoptosis in human HepG2 cells at 0.66 uM after 24 hrs by Annexin-V/propidium iodide staining-based flow cytometric analysis; type: functional
HepG2 [3] = assay: Induction of NO generation in human HepG2 cells assessed as nitrite levels at 0.33 uM after 6 hrs by Griess assay (reference value: 12.6 +/- 1.1 uM); type: functional
HepG2 [4] = assay: Cell cycle arrest in human HepG2 cells assessed as accumulation at S phase at 0.66 uM after 24 hrs by propidium iodide/RNAse staining-based flow cytometric analysis relative to control; type: functional
HepG2 [5] = assay: Induction of NO generation in human HepG2 cells assessed as nitrite levels at 0.33 uM after 48 hrs by Griess assay (reference value: 12.8 +/- 1.7 uM); type: functional
HepG2 [6] = assay: Cell cycle arrest in human HepG2 cells assessed as accumulation at S phase after 24 hrs by propidium iodide/RNAse staining-based flow cytometric analysis; type: functional
HepG2 [7] = assay: Induction of NO generation in human HepG2 cells assessed as nitrite levels at 0.33 uM after 60 hrs by Griess assay (reference value: 12.8 +/- 1.5 uM); type: functional
HepG2 [8] = assay: Induction of NO generation in human HepG2 cells assessed as nitrite levels at 0.16 uM after 24 hrs by Griess assay (reference value: 12.8 +/- 1.7 uM); type: functional
HepG2 [9] = assay: Induction of apoptosis in human HepG2 cells assessed as increase in cleaved caspase9 level up to 0.66 uM after 24 hrs by Western blot analysis; type: functional, cell-based
HepG2 [10] = assay: Cell cycle arrest in human HepG2 cells assessed as accumulation at S phase at 0.16 to 0.66 uM after 24 hrs by propidium iodide/RNAse staining-based flow cytometric analysis; type: functional
NIH3T3 = assay: Growth inhibition of mouse NIH/3T3 cells after 24 hrs by MTT assay; type: cell-based; settings: NIH3T3, 24 h
L02 [11] = assay: Induction of NO generation in human HL-7702 cells assessed as nitrite levels at 0.66 uM after 3 hrs by Griess assay (reference value: 11.6 +/- 1.2 uM); type: functional
HepG2 [12] = assay: Induction of NO generation in human HepG2 cells assessed as nitrite levels at 0.66 uM after 6 hrs by Griess assay (reference value: 12.6 +/- 1.1 uM); type: functional
HepG2 [13] = assay: Induction of NO generation in human HepG2 cells assessed as nitrite levels at 0.33 uM after 12 hrs by Griess assay (reference value: 12.7 +/- 1.8 uM); type: functional
HepG2 [14] = assay: Induction of NO generation in human HepG2 cells assessed as nitrite levels at 0.66 uM after 24 hrs by Griess assay (reference value: 12.8 +/- 1.7 uM); type: functional
HepG2 [15] = assay: Induction of NO generation in human HepG2 cells assessed as nitrite levels at 0.16 uM after 12 hrs by Griess assay (reference value: 12.7 +/- 1.8 uM); type: functional
HepG2 [16] = assay: Growth inhibition of human HepG2 cells pre-incubated with mtADH inhibitor PCDA for 2.5 hrs followed by 0.66 uM compound treatment for 24 hrs by MTT assay; type: functional, cell-based
HepG2 [17] = assay: Induction of apoptosis in human HepG2 cells assessed as late apoptotic/necrotic cells at 0.33 uM after 24 hrs by Annexin-V/propidium iodide staining-based flow cytometric analysis; type: functional
HepG2 [18] = assay: Cell cycle arrest in human HepG2 cells assessed as accumulation at S phase at 0.66 uM after 24 hrs by propidium iodide/RNAse staining-based flow cytometric analysis; type: functional
MDA-MB-231 = assay: Growth inhibition of human MDA-MB-231 cells after 24 hrs by MTT assay; type: functional, cell-based; settings: MDA-MB-231, 24 h
L02 [19] = assay: Growth inhibition of human HL-7702 cells after 24 hrs by MTT assay; type: cell-based; settings: L02, 24 h
HepG2 [20] = assay: Induction of NO generation in human HepG2 cells assessed as nitrite levels at 0.66 uM after 3 hrs by Griess assay (reference value: 12.8 +/- 1.5 uM); type: functional
[21] = Selectivity index, ratio of IC50 for human HL-7702 cells to IC50 for human HepG2 cells; type: toxicity; settings: HL-7702 cells versus HepG2 cells, read-out: Ratio IC50
L02 [22] = assay: Induction of NO generation in human HL-7702 cells assessed as nitrite levels at 0.66 uM after 60 hrs by Griess assay (reference value: 11.8 +/- 1.3 uM); type: functional
L02 [23] = assay: Induction of NO generation in human HL-7702 cells assessed as nitrite levels at 0.66 uM after 1 hr by Griess assay (reference value: 11.6 +/- 1.1 uM); type: functional
HepG2 [24] = assay: Induction of NO generation in human HepG2 cells assessed as nitrite levels at 0.33 uM after 3 hrs by Griess assay (reference value: 12.8 +/- 1.5 uM); type: functional
HepG2 [25] = assay: Induction of NO generation in human HepG2 cells assessed as nitrite levels at 0.66 uM after 48 hrs by Griess assay (reference value: 12.8 +/- 1.7 uM); type: functional
L02 [26] = assay: Induction of NO generation in human HL-7702 cells assessed as nitrite levels at 0.66 uM after 24 hrs by Griess assay (reference value: 11.6 +/- 1.1 uM); type: functional
HepG2 [27] = assay: Induction of apoptosis in human HepG2 cells assessed as increase in cleaved PARP level up to 0.66 uM after 24 hrs by Western blot analysis; type: functional, cell-based
HepG2 [28] = assay: Induction of NO generation in human HepG2 cells assessed as nitrite levels at 0.16 uM after 1 hr by Griess assay (reference value: 12.9 +/- 1.5 uM); type: functional
HepG2 [29] = assay: Induction of NO generation in human HepG2 cells assessed as nitrite levels at 0.33 uM after 24 hrs by Griess assay (reference value: 12.8 +/- 1.7 uM); type: functional
HepG2 [30] = assay: Induction of NO generation in human HepG2 cells assessed as nitrite levels at 0.66 uM after 12 hrs by Griess assay (reference value: 12.7 +/- 1.8 uM); type: functional
HepG2 [31] = assay: Induction of apoptosis in human HepG2 cells assessed as early apoptotic cells at 0.66 uM after 24 hrs by Annexin-V/propidium iodide staining-based flow cytometric analysis; type: functional
HepG2 [32] = assay: Induction of apoptosis in human HepG2 cells assessed as late apoptotic/necrotic cells at 0.66 uM after 24 hrs by Annexin-V/propidium iodide staining-based flow cytometric analysis; type: functional
HepG2 [33] = assay: Induction of NO generation in human HepG2 cells assessed as nitrite levels at 0.16 uM after 60 hrs by Griess assay (reference value: 12.8 +/- 1.5 uM); type: functional
HepG2 [34] = assay: Induction of apoptosis in human HepG2 cells assessed as inhibition of p53-MDM2 interaction by measuring upregulation of p53 expression after 24 hrs by Western blot analysis; type: functional, cell-based
L02 [35] = assay: Induction of NO generation in human HL-7702 cells assessed as nitrite levels at 0.66 uM after 48 hrs by Griess assay (reference value: 11.6 +/- 1.1 uM); type: functional

Which results are given for `COc1cccc2oc3cc(OCCCCCO[N+](=O)[O-])cc(O)c3c(=O)c12`?
Activity (HepG2 [1]): Dose-dependent effect; Activity (HepG2 [2]): 86.8%; Activity (HepG2 [3]): 29.6 µM; Activity (HepG2 [4]): 93.1%; Activity (HepG2 [5]): 26.6 µM; Activity (HepG2 [6]): Dose-dependent effect; Activity (HepG2 [7]): 18.2 µM; Activity (HepG2 [8]): 26.2 µM; Activity (HepG2 [9]): Dose-dependent effect; Activity (HepG2 [10]): Active; IC50 (NIH3T3): 378 µM; Activity (L02 [11]): 15.1 µM; Activity (HepG2 [12]): 31.4 µM; Activity (HepG2 [13]): 31.5 µM; Activity (HepG2 [14]): 39.1 µM; Activity (HepG2 [15]): 25.7 µM; growth inhibition (GI) (HepG2 [16]): inactive; Activity (HepG2 [17]): 11.8%; Activity (HepG2 [18]): 56.2%; IC50 (MDA-MB-231): 0.57 µM; IC50 (L02 [19]): 377 µM; Activity (HepG2 [20]): 25.7 µM; selectivity ratio [21]: 1140; Activity (L02 [22]): 14.5 µM; Activity (L02 [23]): 14.2 µM; Activity (HepG2 [24]): 23.2 µM; Activity (HepG2 [25]): 28.1 µM; Activity (L02 [26]): 19.4 µM; Activity (HepG2 [27]): Dose-dependent effect; Activity (HepG2 [28]): 15.6 µM; Activity (HepG2 [29]): 35.1 µM; Activity (HepG2 [30]): 36 µM; Activity (HepG2 [31]): 45.1%; Activity (HepG2 [32]): 41.7%; Activity (HepG2 [33]): 15.7 µM; Activity (HepG2 [34]): Dose-dependent effect; Activity (L02 [35]): 16.2 µM
